# Tests used:
# [1] = tested on: Co26 murine colon carcinoma (Co26-CC) cell adhesion to HSE cells; assay: Co26 colon carcinoma cell adhesion to HSE cells; assay type: cell-based; details: FIG. 6B
# Description: (§1) Time-dependent adhesion assays was carried out on a quantitative basis according to previous validated bioassays (Vidal-Vanaclocha et al., Cancer Research, 1994, 54(10):2667-72). For tumor cell pre-labelling, they were allowed to accumulate the non-fluorescent sterase substrate BCECF-AM and to hydrolyze it to its fluorescent product BCECF which becomes trapped inside living cells. To do this, 50 μg of BCECF-AM were diluted in dry DMSO (5 μl) and DME medium until […] (40 μg/ml).
# (§2) Tumor cells (5×10^6) were incubated in BCECF-AM solution at 37° C. for 30 min. After gently washing, tumor cells were resuspended in fresh medium (DMEM without phenol red) at a concentration of 2×10^6 cells/ml.
# (§3) Twenty-four hours post-plating, primary cultured hepatic sinusoidal endothelial (HSE) cells were also used for adhesion assay. To determine the basal autofluorescence per well, plates were read on a fluorometric microplate reader (Multiskan Ascent, Thermo Labsystems) using 485/22 nm excitation and the 530/25 nm emission filter. Then, 2×10^5 labeled tumor cells were added to each well of HSE cells and to collagen pre-coated control wells.
# (§4) However, in order to determine the exact number of cells in each well, co-culture plates were read for a second time. Then, plates were incubated at 37° C. […]
# [2] = tested on: VEGF production by B16M cells; assay: Measurement of VEGF production by B16M cells in response to soluble ICAM-1 and H2O2 (ELISA); assay type: cell-based, murine; details: 10 μg/ml HC0303 30 min prior to 200 ng/ml sICAM-1, then DMEM or 10 μM H2O2 for 2 hours; FIG. 8; P<0.01
# Description: Cultured B16M cells were incubated for 30 min with 200 ng/ml soluble ICAM-1 prior to either basal medium (DMEM) or 10 μM H2O2. Some cells were pre-incubated with 1 μg/ml anti-murine LFA-1 monoclonal antibody or 10 μg/ml compound HC0303 for 30 min before ICAM-1 addition. After 2 hours, supernatants were collected, centrifuged at 1,000 g for 10 min and subjected to 0.22 μm filtration.
# The addition of either 1 μg/ml anti-murine LFA-1 monoclonal antibody or 10 μg/ml compound HC0303 for 30 minutes prior to sICAM-1 abrogated induced VEGF production (FIG. 8). Data represent the mean ±SD of two separate experiments; differences in VEGF production in treated versus untreated cells (*) and ICAM-1/H2O2-treated cells were statistically significant (P<0.01) by ANOVA and Bonferroni's post-hoc test.
# [3] = tested on: Human peripheral blood lymphocyte (PBL) adhesion to immobilized human recombinant ICAM-1; assay: Human PBL adhesion assay to immobilized recombinant human ICAM-1; assay type: cell-based; details: PBLs 100 ng/ml PMA 30 min, then HC0303 20 μg/5×10^5 cells for 30 min; FIG. 7; P<0.01
# Description: Ninety six-well plates were coated with 2 μg/ml recombinant human ICAM-1 (R&D Systems, Minneapolis, Minn.) at 4° C. overnight. Nonspecific binding sites on plastic were blocked by treating the wells with 100 μl of PBS containing 0.5% BSA for 2 h at room temperature. Isolated human PBLs were incubated with either basal medium or 100 ng/ml PMA for 30 min. Then, PBLs were BCECF-AM-labeled and after washing, the compound HC0303 (20 μg/5×10^5 cells) was added for 30 min.
# For adhesion assay, PBLs (5×10^4 per well) were added to quadruplicate wells. Then, plates were incubated for 1 hour at 37° C. before unattached cells were removed by washing three times with fresh medium. The number of adhering cells was determined using the same quantitative fluorescence measurement system as above described.
# That this anti-adhesive effect of compound HC0303 is due to LFA-1/ICAM-1 interaction blockade was further confirmed along a lymphocyte adhesion assay to immobilized ICAM-1 substrate. Cultured PBLs were incubated with either basal medium or 100 ng/ml PMA for 30 min. Then, PBLs were BCECF-AM-labeled and after washing, compound HC0303 (20 μg/5×10^5 cells) was added for 30 minutes prior to the adhesion assay to a ICAM-1-coated plate. […] The results are the mean ±SD of three separate experiments, each in sextuplicate (n=18). […]
# [4] = tested on: Co26-CC cells; assay: Viability of Co26-CC cells after in vitro pretreatment; assay type: cell-based, murine; details: in vitro cancer cell pretreatment with HC0303
# [5] = tested on: 51b murine colon carcinoma (51b-CC) cell adhesion to HSE cells; assay: 51b colon carcinoma cell adhesion to HSE cells; assay type: cell-based; details: 51b cells, FIG. 6A
# Description: as §1, §2, §3, §4
# [6] = 100 ng/ml PMA 30 min, then HC0303 20 μg/5×10^5 cells for 30 min, P<0.01
# [7] = HC0303 20 μg/5×10^5 cells for 30 min
compound,measurement,setting,value
"CC[C@H](C)C(OCc1ccccc1)[C@@H]1[C@H]([N+](=O)[O-])[C@H](c2ccccc2)N[C@]1(C)C(=O)NCCC(=O)O (stereo partly drawn) [HC0303, 3-[(2S,3R,4S,5S)-3-[(2S)-1-(Benzyloxy)-2-methylbutyl]-2-methyl-4-nitro-5-phenylpyrrolidine-2-carboxamido]propanoic acid]",PMA-induced cancer cell adhesion to HSE cells,[1]; [6],significantly decreased
same,adhesion to untreated HSE cells (no PMA),[1]; [7],did not affect
same,induced VEGF production (sICAM-1 / H2O2),[2],abrogated
same,PMA-induced adhesion of PBLs to immobilized human recombinant ICAM-1,[3],significantly decreased
same,Cell viability of Co26-CC cells,[4],without Affecting Cell Viability
same,PMA-induced cancer cell adhesion to HSE cells,[5]; [6],significantly decreased
same,adhesion to untreated HSE cells (no PMA),[5]; [7],did not affect

# Source: US7943660B2, “Inhibitors of the LFA-1/ICAM-1 interaction and uses thereof” (Dominion Pharmakine S.L., priority 2005, dated 2011)
